For the molecule `COc1cc(-n2cnc3cc(-c4ccc(Cl)cc4)sc3c2=O)ccc1OCC1(O)CC(F)(F)C1`, the melting point is 198 to 199 °C. With `O=C(NNC(=O)c1ccnc2[nH]ccc12)OCc1ccccc1` the figure was 203 to 204 °C.

`c1ccc(Oc2nc(Oc3ccccc3)nc(N3CCOCC3)n2)cc1`: the melting point was in the range of 166 to 168 °C. In turn, `O=S(=O)(c1cc(F)ccc1F)N1CCNc2ncc(I)cc21` came in with a melting point of 187 to 188 °C.

Molecule `CC(c1oc2ccccc2c(=O)c1-c1cccc(F)c1)n1nc(-c2ccc3[nH]ccc3c2)c2c(N)ncnc21` (stereo unspecified) gave a melting point of 197 to 199 °C. With `COc1cc(-c2ccc(N(C)CCN(C)c3ccc(-c4cc(OC)c(N5CCCC5)c(OC)c4)nc3)cn2)cc(OC)c1N1CCCC1` the figure was 221 to 225 °C. With `CCOc1cc(C2=NN(c3ccccc3)C(=O)[C@H]3CC=CC[C@@H]23)ccc1OC` (relative stereo) the figure was 97 to 99 °C; with `O=C(NCCc1ccccn1)Nc1ccccc1[N+](=O)[O-]`, 182 °C; with `Oc1ccccc1-c1ccccc1P(c1cc(C(F)(F)F)cc(C(F)(F)F)c1)c1cc(C(F)(F)F)cc(C(F)(F)F)c1`, 120 to 121 °C. `CC(C)(C)OC(=O)N1CC=C(c2cnc(COc3ccc(S(C)(=O)=O)cc3)cc2Cl)CC1` registered a melting point of 148 to 150 °C. With `CC[C@@H](COC)n1cc(Cl)nc(N2CCc3cc(Br)cc(Cl)c32)c1=O`, the melting point was 121 to 122 °C. For `Cc1cc(Cl)cc(C(=O)Nc2cccc(Cl)c2)n1` the value was 174 °C; for `COc1ccc(-c2nn(Cc3ccc(Cl)cc3Cl)c(=O)cc2-c2ccncc2)cc1`, 151 to 153 °C; for `CCc1cc2c(s1)SCCc1cc(=O)n(-c3ccc(OC)cc3)nc1-2`, 141 to 143 °C. For `CCOC(=O)c1c[nH]c2cc(OC)c(OC)cc2c1=O` the value was 275 to 285 °C. For `CCCCN(CCCC)CCCOc1ccc(S(=O)(=O)c2c(C(C)C)n(C)c3ccccc23)cc1` the value was 90 °C. Regarding `Clc1ccc2c3c(cnc2c1)OC1(C=N3)CCCCC1`, the melting point was in the range of 216 to 218 °C. With `Cc1ccc(-c2nc(-c3ccc(C)cc3C)nc(-c3ccc(O)cc3O)n2)c(C)c1` the figure was 199 to 201 °C. For `CC(C)(C)OC(=O)COc1ccc(/C=C/C(=O)C(F)(F)F)cc1` the value was 112 to 113 °C; for `O=[N+]([O-])c1ccc(C(c2cccs2)C(Cc2cccs2)N2CCC(Cc3ccccc3)CC2)cc1` (stereo unspecified), 124 to 126 °C; for `COc1ccccc1NC(=O)Nc1nc(Nc2ccccc2-c2ccccc2)nc(N(CCC(=O)O)Cc2cccc3ccccc23)n1`, 218 to 221 °C.

`COc1ccc(CCNC(=O)C(F)(F)F)cc1NC(C)=O` registered a melting point of 105 to 106 °C.

`Cc1cc(O)c(C)c(Br)c1C`: the melting point fell in the range of 86 to 88 °C. With `COc1ccc2ccn(CC(N)=O)c2c1` the figure was 210 to 211 °C.

`Fc1ccc(-c2cc3cccc(Cl)n3n2)cc1` registered a melting point of 156 to 157 °C. With `CC1(C)CC(NC(=O)CCC(=O)O)CC(C)(C)N1OC1CCCCC1` the figure was 136 to 138 °C. With `C[N+](C)(CCl)CCCC(=O)[O-]` the figure was 100 to 101 °C; with `COc1ccc(Nc2nccc3ccn(S(=O)(=O)c4ccc(OC)cc4)c23)cc1`, 156 to 158 °C; with `c1ccc(-c2nc3ncccc3[nH]2)nc1`, 139 to 142 °C.

On to `COC1(OC)CN(c2c(F)cc3c(=O)c(C(=O)O)cn(C4CC4)c3c2F)CC1C` (stereo unspecified), for which the melting point fell in the range of 214 to 216 °C.

For `CCc1c(-c2ccc(O)cc2)c2cc(C(C)=O)c3ccc(CO)c1n32`, the melting point lay in the range of 194 to 195 °C.

Consider `COc1cccc2cc(C)c(-c3ccccc3)nc12`, for which the melting point came to 105 °C. With `C=C(c1ccccc1)[C@@H](C)[C@H](NC(=O)C(F)(F)F)C(=O)O` the figure was 108 °C; with `Cc1ccc(NC(=O)c2cc(Cl)ccc2NCC2CCN(C3CCCC3)CC2)nc1`, 150 to 152 °C; with `O=c1c2ccccc2ccc2cc(CCO)ccc12`, 73 to 75 °C. Molecule `C=CCNS(=O)(=O)c1ccc(Br)cc1` displayed a melting point of 63 to 65 °C. With `O=C(c1ccccc1)n1c2cc(O)c(O)cc2c2cc(O)c(O)cc21` the figure was 287 to 292 °C; with `Cn1c(=O)cc(-c2cccc(Cl)c2)c2cc(C(=O)c3cccc(I)c3)ccc21`, 235 °C. With `CN1C(=O)CC[C@]2(C)c3ccc(Sc4ccc5nc6ccccc6c(=O)n5n4)cc3CC[C@@H]12` the figure was 110 to 114 °C; with `COc1ccc(CN2c3ncccc3NC(=O)c3cccnc32)cc1`, 209 to 210 °C; with `CCOC(=O)c1cn(Cc2cccnc2)nc1OCc1cccnc1`, 120 to 121 °C. The molecule `Cc1cc(=S)c(OCC(=O)O)co1` gave a melting point of 120 to 125 °C. With `N#Cc1nn(-c2c(Cl)cc(C(F)(F)F)cc2Cl)c(N)c1-c1ccc2c(c1)OCO2` the figure was 222 °C. With `COCc1ccc(Oc2cncc3sc(C(N)=O)cc23)cc1` the figure was 168 °C; with `O=C(O)c1cc(Cl)c(OCc2ccccc2)c(Cl)c1`, 211 to 213 °C. For `CCCCCCCC(c1cc(C)cc(N=Nc2ccc(C)cc2[N+](=O)[O-])c1O)c1cc(C)cc(N=Nc2ccc(C)cc2[N+](=O)[O-])c1O` (stereo unspecified) the value was 145 °C; for `CCC1=Cc2cc(OCC(=O)O)c(Cl)c(Cl)c2C1=O`, 205 to 207 °C. Molecule `CN(C)c1ccc(-c2cc3nccnc3[nH]2)cc1` yielded a melting point of 297 to 298 °C. `Cc1cc(NC(=O)Cc2ccsc2)nc(C)c1Br` had a melting point of 211 °C. For `N=C(Nc1ccccc1-c1ccc(F)cc1)N1CCC(O)CC1` the value was 132 to 133 °C; for `Cn1nnc(-c2ccc(C#CC3(O)CN4CCC3CC4)cc2)n1` (stereo unspecified), 228 to 230 °C. For `CSCC1=C(c2ccccc2)C(=O)N(C(C)(C)C(=O)O)CO1` the value was 136 to 137 °C; for `CCS(=O)(=O)N1CCSc2cccc(Cl)c2C1`, 126 to 128 °C; for `c1ccc(Cn2c(N3CCCCC3)nc3ccccc32)cc1`, 84 to 87 °C.

The molecule `N=C1SCCN1c1ccc(C(F)(F)F)cc1[N+](=O)[O-]` showed a melting point of 153 °C. With `COc1ccc2c(c1)C(CCNC(C)=O)C1(CC2)Cc2ccccc2C1` (stereo unspecified) the figure was 139 to 141 °C. `O=c1[nH]c(=O)n(C2CC(OCc3ccccc3)C(COCc3ccccc3)C2O)cc1I` (stereo unspecified) came in with a melting point of 165 °C. In the case of `CCN(CC)CCc1cccc(N2C(=O)N(c3ccc(Cl)cc3Cl)Cc3cnc(Nc4ccccc4)nc32)c1`, the melting point is 186 °C. For `NS(=O)(=O)c1ccc(-c2c(-c3ccccc3)noc2COCC(F)(F)C(F)(F)CO[N+](=O)[O-])cc1` the value was 46 °C.

`CC(C)c1c(Cl)nc(OCc2ccccc2)nc1OCc1ccccc1`: the melting point is 77 to 78 °C. For `CCC1(C)C(=O)NN=C1c1ccc(-n2ccnc2)cc1` (stereo unspecified) the value was 86 to 88 °C. For `CCCN(CCC)Cc1csc(-c2ncn3c2CN(C)C(=O)c2c(Cl)cccc2-3)n1` the value was 121 to 123 °C. For `CNC(=S)n1nc(-c2ccc(Cl)c3ccccc23)nc1N` the value was 270 to 272 °C. `CC(C)n1nc(-c2nc(C(N)=O)c(N)nc2-c2cccs2)ccc1=O` came in with a melting point of 238 to 240 °C. For `C=CCOc1cccc(C(C)=O)c1O` the value was 51 to 52 °C; for `COc1ccc2c(c1)cc(C(=O)Nc1nc(-c3cc(OC)c(C)cc3OC)c(CCC3CCCCC3)s1)n2CC(=O)O`, 163 to 165 °C; for `Fc1cccc(F)c1C1=NC(c2ccc(OCc3ccc4ccccc4c3)cc2)CO1` (stereo unspecified), 148 to 150 °C. For the molecule `Cc1ccc(NC(=O)C#Cc2ccccc2)cc1`, the melting point fell in the range of 139 to 141 °C. The molecule `CC(=O)c1ccc(C2=C(c3ccc(S(C)(=O)=O)cc3)OC3(CCCC3)C2=O)cc1` had a melting point of 126 to 130 °C. With `CCOCc1nc2c(N)nc3cc(N4CCCCS4(=O)=O)ccc3c2n1CCCOC(C)C` the figure was 172 to 174 °C. With `CCOC(=O)NNC(=O)NCCCl` the figure was 118 to 120 °C; with `O=C(COc1ccccc1)NC1C(=O)N2C(C(=O)OCc3ccc([N+](=O)[O-])cc3)=C(O)CCC12` (stereo unspecified), 160 to 162 °C.

The molecule `CN(C)C(=O)Oc1ccc2c(NCCN3CCOCC3)noc2c1` registered a melting point of 150 °C. With `O=[N+]([O-])c1cnc2ccc(SC(F)F)cc2c1-c1ccccc1` the figure was 101 to 103 °C; with `COc1ccc2c(c1)CCC(C=O)=C2C`, 70 to 72 °C. With `NS(=O)(=O)c1cc(CO)cc(NCc2ccccc2)c1S(=O)c1ccccc1` (stereo unspecified) the figure was 213 to 214 °C; with `Cc1cccc(C)c1C(=O)NCC(=O)N1c2ccccc2N(Cc2ccccc2)C(=O)[C@H]2CCC[C@H]21` (relative stereo), 208 to 209 °C. For `Clc1cnc(Sc2cccs2)nc1` the value was 65 °C; for `COc1cc2c(cc1OC)CN(CCCCOc1ccc(NC(=O)c3nccc4ccccc34)cc1)CC2`, 122 to 123 °C; for `c1ccc(COC[C@H]2OC(Sc3ccccc3)[C@H](OCc3ccccc3)[C@@H](OCc3ccccc3)[C@@H]2OCc2ccccc2)cc1` (stereo partly specified), 85 to 86 °C. `CCCCCCCCC=CCCCCCCCCCCCC(=O)NC(=O)CN` gave a melting point of 128 to 130 °C. For `COc1ccc(F)c2c1OC(CN1CC(C)(C)Cn3c1nc(-c1ccncn1)cc3=O)CC2` (racemic) the value was 136 to 138 °C; for `CC1OC(O)(Cl)CC(NC(=O)C(F)(F)F)C1(O)OC(=O)C(F)(F)F` (stereo unspecified), 132 to 134 °C. On to `COc1ccccc1N1CCN(CC2CCc3ccccc3C2O)CC1` (stereo unspecified), for which the melting point fell in the range of 110 to 113 °C. `Nc1nc2[nH]c(CCCc3cc(C(=O)O)cs3)cc2c(=O)[nH]1` yielded a melting point of 181 to 182 °C. For `Cc1c(CN2CCN(c3cccc(C(F)(F)F)c3)CC2)cc(-c2ccc(Cl)cc2)n1-c1ccc(Cl)cc1` the value was 165 to 167 °C.

The values are drawn from a melting point compilation (Tetko et al.; mined from patent text by program, amines drawn as free bases though some values may be those of a salt).
